Test results: US10017462B1, “Antimicrobial poly(guanylurea)s” (THE FLORIDA INTERNATIONAL UNIVERSITY BOARD OF TRUSTEES, priority 2018, dated 2018)
Values after ≈ are worked out from the molar mass of the structure shown.

Test system: methicillin-resistant Staphylococcus aureus (MRSA) (ATCC BAA-44)
Assay: MIC assay, broth microdilution with resazurin
Format: cell-based
Conditions: Mueller Hinton broth, 20-44 h at 37° C.
Method: Antimicrobial assay antimicrobial activities of the polymers were determined by the minimal inhibitory concentration (MIC) assay. MIC of Mycobacterium smegmatis (ATCC 700084), Shigella flexneri (ATCC 9199), Staphylococcus aureus (ATCC 14775) and methicillin-resistant Staphylococcus aureus (MRSA) (ATCC BAA-44) were determined by the standard broth microdilution method with slight modification. In brief, different bacteria were grown in either Mueller Hinton broth (MHB) or 7H9 broth (M. smegmatis) overnight at 37° C. Next day, the cells were first OD600 adjusted to 0.1 and then further diluted 1:100 in the respective media and 50 μL (˜10^5 CFU) is added to 96 well-microplate wells containing 50 μL serial dilutions of the polymers. The plates were incubated for 20-44 h at 37° C. MIC is defined as the lowest concentration of the polymer that inhibits the visual growth of the bacteria. To aid in determining the visual growth of bacteria, resazurin, a red-ox dye is added to the wells at a final concentration of 0.02% and incubated for 4-8 h at 37° C. In the presence of viable cells, resazurin (blue) is reduced to resorfurin (pink) along with an increase in fluorescence. MIC was calculated as the lowest concentration of the polymer that prevented the color change and reduced the fluorescence (Ex 540, Em 590 nm) by 90% when compared to the control wells containing no inhibitor. […]

MIC MRSA: 20 µg/mL (≈ 60.4 µM)
Structure (SMILES): O=C(O)c1cn(C2CC2)c2cc(N3CCNCC3)c(F)cc2c1=O [Ciprofloxacin]
